Values belong to the compound of their own block, whether it stands above or below them.
Experiments:
[1] = tested on: 95 Lla (RNA, riboswitch) GGGAAAAUAGAAUAAAUACUCCACCGGGAGUUAAAUCGUAUGAACGAUUGUUUGCAUUUCAGUAGGUCUGAGAAGAAAUGUAGAUAGUCGUUCUU; assay: in-line probing; settings: 20 mM Mg2+, 100 mM K+, 50 mM Tris-HCl pH 8.3 (at 23 °C); for apparent KD: ~48 h; for binding: highest tested 10 mM
[2] = tested on: 147 Lla (RNA, riboswitch) AAAAUAGAAUAAAUACUCCACCGGGAGUUAAAUCGUAUGAACGAUUGUUUGCAUUUCAGUAGGUCUGAGAAGAAAUGUAGAUAGUCGUUCUUUUUUUAGCUGAGGAGGCGAAAAUGACUUGGCUAUAUCUACUAAUAGCAGGAAUUU; assay: in vitro transcription termination assay; settings: 1.8 mM NTPs, 37 °C; for EC50: E. coli RNA polymerase, 8 min, co-transcriptional, full-length fraction; for binding: highest tested 10 mM
[3] = tested on: 92 Rti (RNA, riboswitch) GGGACAAUUGAAGCAUCUGCCGCCGGGUAGACCAAGAACAAAGCAUGUGCGCCCCUAUCGUUAGGCCAUAGAAGAUAGGGGAAAGCGCAUGC; assay: in-line probing; settings: 20 mM Mg2+, 100 mM K+, 50 mM Tris-HCl pH 8.3 (at 23 °C), ~48 h
[4] = tested on: 95 Lla M1 (G66C) (RNA, riboswitch) GGGAAAAUAGAAUAAAUACUCCACCGGGAGUUAAAUCGUAUGAACGAUUGUUUGCAUUUCAGUAGCUCUGAGAAGAAAUGUAGAUAGUCGUUCUU; assay: in-line probing; settings: 20 mM Mg2+, 100 mM K+; 50 mM Tris-HCl pH 8.3 (at 23 °C); highest tested 10 mM
[5] = tested on: 95 Lla M2 (U67A) (RNA, riboswitch) GGGAAAAUAGAAUAAAUACUCCACCGGGAGUUAAAUCGUAUGAACGAUUGUUUGCAUUUCAGUAGGACUGAGAAGAAAUGUAGAUAGUCGUUCUU; assay: in-line probing; settings: 20 mM Mg2+, 100 mM K+; 50 mM Tris-HCl pH 8.3 (at 23 °C); highest tested 10 mM
[6] = tested on: 95 Lla M3 (G72C) (RNA, riboswitch) GGGAAAAUAGAAUAAAUACUCCACCGGGAGUUAAAUCGUAUGAACGAUUGUUUGCAUUUCAGUAGGUCUGACAAGAAAUGUAGAUAGUCGUUCUU; assay: in-line probing; settings: 20 mM Mg2+, 100 mM K+; 50 mM Tris-HCl pH 8.3 (at 23 °C); highest tested 10 mM
[7] = tested on: 95 Lla M4 (G62C) (RNA, riboswitch) GGGAAAAUAGAAUAAAUACUCCACCGGGAGUUAAAUCGUAUGAACGAUUGUUUGCAUUUCACUAGGUCUGAGAAGAAAUGUAGAUAGUCGUUCUU; assay: in-line probing; settings: 20 mM Mg2+, 100 mM K+; 50 mM Tris-HCl pH 8.3 (at 23 °C); up to 10 mM; folding differs from wt
[8] = tested on: GGAM-2 (Cfi 63) (RNA, mRNA element) GGAAUGGUACGGUCGUACCAGAACCGUGCGCGGGACGGCGGACCUGACACCCGGCGCGCAGCG; assay: in-line probing and in vitro transcription; settings: 20 mM Mg2+, 100 mM K+; initial experiments, data not shown; highest concentration not stated
[9] = tested on: GGAM-2 (Cfi 80) (RNA, mRNA element) GGUCGCAGGAAUGGUACGGUCGUACCAGAACCGUGCGCGGGACGGCGGACCUGACACCCGGCGCGCAGCGGUCGCCCACC; assay: in-line probing and in vitro transcription; settings: 20 mM Mg2+, 100 mM K+; initial experiments, data not shown; highest concentration not stated
[10] = tested on: GGAM-3 (Bub 73) (RNA, mRNA element) GGGAUCCAUCCGGGGUACCGCUCCCGCAAGUUGAUCGCGCUCGGUACAAGCGCGAAAUCAGGAGCGGUACGCC; assay: in-line probing and in vitro transcription; settings: 20 mM Mg2+, 100 mM K+; initial experiments, data not shown; highest concentration not stated
[11] = tested on: GGAM-3 (Bub 59) (RNA, mRNA element) GGGAUCCAUCCGGGGUACCGCUCCCGCAAGUUGAUCGCGCUCGGUACAAGCGCGAAAUC; assay: in-line probing and in vitro transcription; settings: 20 mM Mg2+, 100 mM K+; initial experiments, data not shown; highest concentration not stated
[12] = tested on: GGAM-4 (Msu 80) (RNA, mRNA element) GGGAAACUAAGGUCCGCCCGCUAGGCCGGCCGCGCCUCGACGCGCCGGCUCUCGUCAAUCGAACACGCGCGGUACCCAUG; assay: in-line probing and in vitro transcription; settings: 20 mM Mg2+, 100 mM K+; initial experiments, data not shown; highest concentration not stated
[13] = tested on: GGAM-4 (Msu 98) (RNA, mRNA element) GGGCGACAGCCUCUCCUCGCGAAACUAAGGUCCGCCCGCUAGGCCGGCCGCGCCUCGACGCGCCGGCUCUCGUCAAUCGAACACGCGCGGUACCCAUG; assay: in-line probing and in vitro transcription; settings: 20 mM Mg2+, 100 mM K+; initial experiments, data not shown; highest concentration not stated
[14] = tested on: GGAM-5 (Nov 77) (RNA, mRNA element) GGGUGGAUGCGCCGAGAAUAGAGUAGCAGGGUGGUGUCUCCUGCGCCCGUAAGGGUUCUUCCCAGCCACGGCGUCAA; assay: in-line probing and in vitro transcription; settings: 20 mM Mg2+, 100 mM K+; initial experiments, data not shown; highest concentration not stated
[15] = tested on: GGAM-6 (Sru 111) (RNA, mRNA element) GGGUCAAUACUCGUAUCGGACGGCAAGCAAUCGCCUGCUUGCCAGAUAAGGUGUCCAUAGACACUGGAACGGGUUAUUCAGGCCAGAUAAGAUCGCAUUCUUAUCUGGCCU; assay: in-line probing and in vitro transcription; settings: 20 mM Mg2+, 100 mM K+; initial experiments, data not shown; highest concentration not stated

apparent KD ([1]; Figure 5 legend prints ±0.6): 4100 ± 500 µM | EC50 [2]: 2700 ± 700 µM
Structure (SMILES): CNC(=N)N

apparent KD [1]: 210 ± 20 µM | apparent KD [3]: 190 ± 30 µM | binding [4]: no | binding [5]: no | binding [6]: no | binding [7]: weak | EC50 [2]: 260 ± 30 µM | binding [8]: no | binding [9]: no | binding [10]: no | binding [11]: no | binding [12]: no | binding [13]: no | binding [14]: no | binding [15]: no
Structure (SMILES): N=C(N)N

binding [1]: no | binding [2]: no
Structure (SMILES): N=C(N)NCCC[C@H](N)C(=O)O

apparent KD [1]: 7500 ± 800 µM | EC50 [2]: 3800 ± 500 µM
Structure (SMILES): N=C(N)NN

binding [1]: no | binding [2]: no
Structure (SMILES): NC(N)=O
